Where two headings read alike, the source gives them in different places.
Columns and labels:
MDA-MB-231 = experiment: MTT cytotoxicity assay, MDA-MB-231; format: cell-based; conditions: Homo sapiens
Method: (§1) After treatment with target compounds at the different concentrations, MTT was added and the cells were incubated for another 4 h. The IC50 values of the selected compounds were evaluated by the same method. The cells were treated with compounds at different concentrations. The OD values were detected using a microplate reader at 570 nm.

HCC1937 cell lines [1] = experiment: MTT cytotoxicity assay, HCC1937; format: cell-based, human; conditions: Homo sapiens, HCC1937
Method: as §1

[2] = test system: Caspase-3, cleaved Caspase-3, Bax, Bcl-2 in HCC1937 cell lines; experiment: Western blot of apoptosis-related proteins, HCC1937; format: cell-based, human; conditions: HCC1937, 1.25-20 μM, 48 h
Method: (§2) Subsequently, the cells were lysed with RIPA lysis buffer and protein samples were prepared. Denatured proteins were separated by 10% SDS-PAGE electrophoresis and transferred to a PVDF membrane. The membrane was blocked with 5% blocking solution for 2 h. The membrane was incubated overnight at 4 °C with specific primary antibody. Then, the membrane was rinsed three times with TBST, secondary antibody was added, and the membrane was incubated at room temperature for 2 h. Finally, the target protein was detected by the ECL detection system. The relative expression was quantified using Image J (National Institutes of Health).

LO2 = experiment: MTT cytotoxicity assay, LO2 normal hepatocytes; format: cell-based; conditions: L02, 72 h; 3 days, human normal hepatocytes
Method: as §1

HCT-15 cell lines [3] = experiment: Mitochondrial membrane potential assay (JC-1), HCT-15; format: cell-based, human
From the text: (§3) Cell culture methods were the same as for the cell apoptosis assay.
(§4) The experimental operation was the same as ROS, only replacing the DCFH-DA probe with the JC-1 probe.

HCT-15 cell lines [4] = experiment: Cell apoptosis assay (Annexin V-FITC/PI flow cytometry), HCT-15; format: cell-based, human; conditions: HCT-15, 20 μM, 48 h
Method: (§5) The cells were seeded in 6-well plates with 1 × 10^5 cells per well and incubated for 24 h. […] The cells were digested, collected, and resuspended in the binding buffer. After adding 5 μL of Annexin V-FITC and 10 μL of propidium iodide (PI), the cells were incubated for 30 min away from light; this was followed by detection using flow cytometry (Beckman Coulter).

[5] = test system: γH2AX in HCC1937 cell lines; experiment: Immunofluorescence analysis of γH2AX, HCC1937; format: cell-based, human; conditions: HCC1937, 10 μM
Method: (§6) The cells were seeded in 6-well plates with 1 × 10^5 cells per well and incubated for 24 h. […] Cells were fixed with addition of 4% paraformaldehyde, and immunostaining blocking solution was added at room temperature for 20 min. […] Then, a […] staining solution (DAPI) was added for staining, the […] staining solution was aspirated, and the well washed 3 times with washing solution. Photographs were taken through a Leica SP8 Laser confocal microscope.

HCC1937 cell lines [6] = experiment: Cell apoptosis assay (Annexin V-FITC/PI flow cytometry), HCC1937; format: cell-based, human; conditions: HCC1937, 20 μM, 48 h
Method: as §5

[7] = test system: Caspase-3, cleaved Caspase-3, Bax, Bcl-2 in HCT-15 cell lines; experiment: Western blot of apoptosis-related proteins, HCT-15; format: cell-based, human; conditions: HCT-15, 1.25-20 μM, 48 h
Method: as §2

HCC1937 cell lines [8] = experiment: Mitochondrial membrane potential assay (JC-1), HCC1937; format: cell-based, human
From the text: as §3, §4

[9] = test system: HCT-15 nude mouse xenograft model; experiment: In vivo anti-tumor study
Method: The tumor volume and mouse body weight were recorded, and the corresponding tissues were analyzed.
All experimental procedures were performed according to the National Institutes of Health guidelines for the use of laboratory animals, and an application was made to the Institutional Animal Care and Use Committee, Shandong Second Medical University, which was approved. […] When the tumor volume reached about 80–150 mm^3, the mice were randomly divided into three groups (the control group, and different concentration administration group) and administered for 14 consecutive days, while the tumor volume was measured once every two days and the body weight of the mice was recorded. At the end stage, mice were killed by neck-breaking and tumor tissues were removed. All the photographs were taken through a Leica SP8 Laser confocal microscope.

[10] = Acute toxicity study in mice; format: in vivo, mouse; conditions: single intraperitoneal injection 800 mg/kg, monitored 14 days
Method: The mice were administered a single intraperitoneal injection dose of 800 mg/kg and were constantly monitored for 14 days.

HCT-15 cell lines [11] = experiment: MTT cytotoxicity assay, HCT-15; format: cell-based, human; conditions: Homo sapiens, HCT-15
Method: as §1

[12] = test system: γH2AX in HCT-15 cell lines; experiment: Immunofluorescence analysis of γH2AX, HCT-15; format: cell-based, human; conditions: HCT-15, 10 μM
Method: as §6

[13] = test system: PAR formation in HCC1937 cell lines; experiment: Immunofluorescence analysis of PAR, H2O2-treated HCC1937; format: cell-based, human
Method: as §6

[14] = test system: PAR formation in HCT-15 cell lines; experiment: Immunofluorescence analysis of PAR, H2O2-treated HCT-15; format: cell-based, human
Method: as §6

NCM460 = experiment: MTT cytotoxicity assay, NCM460 normal colonic epithelial cells; format: cell-based; conditions: NCM460, 72 h; 3 days, human normal colonic epithelial cells
Method: as §1

PARP1 = biological target: T1, PARP1 (Homo sapiens, UniProt P09874); experiment: PARP1 enzyme inhibition assay (commercial kit); format: biochemical
T1 construct: purchased Sigma-Aldrich 17-10149
T1 sequence (P09874 whole entry): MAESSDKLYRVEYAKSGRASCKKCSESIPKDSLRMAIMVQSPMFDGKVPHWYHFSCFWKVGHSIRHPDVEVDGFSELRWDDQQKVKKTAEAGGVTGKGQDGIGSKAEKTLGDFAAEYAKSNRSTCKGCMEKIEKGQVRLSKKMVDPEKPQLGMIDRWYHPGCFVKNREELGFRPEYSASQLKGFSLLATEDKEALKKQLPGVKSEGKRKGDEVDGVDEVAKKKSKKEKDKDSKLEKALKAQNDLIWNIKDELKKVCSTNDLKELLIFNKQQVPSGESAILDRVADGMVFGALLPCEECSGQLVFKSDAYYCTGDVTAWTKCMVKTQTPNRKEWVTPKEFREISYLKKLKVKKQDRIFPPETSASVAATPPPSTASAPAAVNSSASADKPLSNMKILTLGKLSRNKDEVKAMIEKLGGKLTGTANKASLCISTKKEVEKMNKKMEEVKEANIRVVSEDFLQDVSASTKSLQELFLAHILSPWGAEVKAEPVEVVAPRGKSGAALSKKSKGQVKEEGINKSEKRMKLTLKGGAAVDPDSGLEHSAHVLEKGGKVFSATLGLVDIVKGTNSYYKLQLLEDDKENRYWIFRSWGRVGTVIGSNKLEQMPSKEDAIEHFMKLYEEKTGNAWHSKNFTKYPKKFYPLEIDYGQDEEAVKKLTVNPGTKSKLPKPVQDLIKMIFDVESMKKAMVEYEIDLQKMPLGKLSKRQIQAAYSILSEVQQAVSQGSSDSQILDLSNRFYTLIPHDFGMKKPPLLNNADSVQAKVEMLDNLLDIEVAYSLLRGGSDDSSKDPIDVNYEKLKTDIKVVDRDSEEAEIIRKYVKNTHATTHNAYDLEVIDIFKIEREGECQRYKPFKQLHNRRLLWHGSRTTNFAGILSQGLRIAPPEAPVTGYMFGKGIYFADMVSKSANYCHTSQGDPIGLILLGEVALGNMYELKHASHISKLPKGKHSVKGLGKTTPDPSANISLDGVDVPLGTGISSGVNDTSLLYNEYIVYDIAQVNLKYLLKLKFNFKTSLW

[15] = 72 h (3-Days) drug exposure, MTT, read-out: IC50 HCC1937
[16] = 72 h (3-Days) drug exposure, MTT, read-out: IC50 HCT-15

`Cc1ccc(Cl)cc1NC(=O)N1C2CC1CN(Cc1nc3ccccc3c(=O)[nH]1)C2` [B1, N-(5-chloro-2-methylphenyl)-3-((4-oxo-3,4-dihydroquinazolin-2-yl)methyl)-3,6-diazabicyclo[3.1.1]heptane-6-carboxamide] showed an IC50 (MDA-MB-231; MDA-MB-231, 72 h, 3 days, read-out: IC50 MDA-MB-231 3-Days) of 11.3 ± 1.93 µM, an IC50 (MDA-MB-231; MDA-MB-231, 7 days, read-out: IC50 MDA-MB-231 7-Days) of 1.33 ± 0.51 µM and an IC50 (HCC1937 cell lines [1]; [15]) of 3.26 ± 0.38 µM. The IC50 (HCC1937 cell lines [1]; 7 days drug treatment, read-out: IC50 HCC1937 7-Days) was 0.17 ± 0.04 µM, the Bax expression [2] was “considerably increased Bax expression” and the Bcl-2 expression [2] was “decreased Bcl-2 expression”. The Caspase-3 activation [2] was “activated Caspase-3”, the IC50 (LO2) was > 100 µM and the “mitochondrial membrane potential (JC-1 fluorescence)” value (“mitochondrial membrane potential” below) (HCT-15 cell lines [3]; HCT-15, 5 μM) was “green fluorescence began to change significantly”. For the same compound, the “mitochondrial membrane potential” value (HCT-15 cell lines [3]; HCT-15, 20 μM) was “the intensity of red fluorescence was hardly visible”, the apoptosis rate (HCT-15 cell lines [4]) was 73.58% and the “expression of γH2AX” value [5] was “significantly increased”. The apoptosis rate (HCC1937 cell lines [6]) was 53.14%, the Bax expression [7] was “considerably increased Bax expression” and the Bcl-2 expression [7] was “decreased Bcl-2 expression”. The Caspase-3 activation [7] was “activated Caspase-3”, the “mitochondrial membrane potential” value (HCC1937 cell lines [8]; HCC1937, 5 μM) was “green fluorescence began to change significantly” and the “mitochondrial membrane potential” value (HCC1937 cell lines [8]; HCC1937, 20 μM) was “the intensity of red fluorescence was hardly visible”. For the same compound, the “tumor cell morphology (H&E)” value ([9]; 10 mg/kg intraperitoneally once daily for 14 days) was “irregular morphological alterations and severe vacuolization”, the “xenograft tumor growth (tumor volume and weight)” value ([9]; 25 mg/kg intraperitoneally once daily for 14 days) was “significantly inhibited xenograft tumor growth” and the “xenograft tumor growth (tumor volume and weight)” value ([9]; 50 mg/kg intraperitoneally once daily for 14 days) was “significantly inhibited xenograft tumor growth”. For the same compound, the “body weight, acute toxicity” value [10] was “no significant reduction in body weight”, the “major organs (H&E), acute toxicity” value [10] was “no significant changes in heart, liver, spleen, lung, or kidney” and the IC50 (HCT-15 cell lines [11]; [16]) was 2.89 ± 0.78 µM. The IC50 (HCT-15 cell lines [11]; 7 days drug treatment, read-out: IC50 HCT-15 7-Days) was 0.13 ± 0.03 µM, the “expression of γH2AX” value [12] was “significantly increased” and the “PAR aggregation (green fluorescence)” value ([13]; H2O2-treated HCC1937, 1.25 μM) was “green fluorescence obviously weakened”. For the same compound, the “PAR aggregation (green fluorescence)” value ([13]; H2O2-treated HCC1937, 5 μM) was “green fluorescence almost disappeared”, the “PAR aggregation (green fluorescence)” value ([14]; H2O2-treated HCT-15, 1.25 μM) was “green fluorescence obviously weakened” and the “PAR aggregation (green fluorescence)” value ([14]; H2O2-treated HCT-15, 5 μM) was “green fluorescence almost disappeared”. The IC50 (NCM460) was > 100 µM.
`O=C(Nc1ccc(F)cc1F)N1CCN(Cc2nc3ccccc3c(=O)[nH]2)CC1` [IN17] gave an inhibition at 50 µM (HCC1937 cell lines [1]; 50 μM, 72 h, MTT, read-out: Inhibition rate (%) HCC1937) of 60.6%, an IC50 (HCC1937 cell lines [1]; [15]) of 34.3 ± 2.68 µM and an inhibition at 50 µM (HCT-15 cell lines [11]; 50 μM, 72 h, MTT, read-out: Inhibition rate (%) HCT-15) of 63.3%. The IC50 (HCT-15 cell lines [11]; [16]) was 33.5 ± 1.79 µM, the IC50 (PARP1) was 471.2 ± 3.18 nM and the inhibition at 0.5 µM (PARP1; 0.5 μM, read-out: Inhibition rate (%) PARP1) was 53.1%. It also gave an IC50 (PARP1; as printed in the text) of 470 ± 3.2 nM.
`Cc1ccc(Cl)cc1NC(=O)N1CCN(Cc2nc3ccccc3c(=O)[nH]2)CC1C` (centres unmarked) [B2, N-(5-chloro-2-methylphenyl)-2-methyl-4-((4-oxo-3,4-dihydroquinazolin-2-yl)methyl)piperazine-1-carboxamide] showed an IC50 (HCC1937 cell lines [1]; [15]) of 5.89 ± 0.5 µM, a melting point of 189.5 to 190.8 °C and an IC50 (HCT-15 cell lines [11]; [16]) of 6.37 ± 2.83 µM.
For `COc1cccc(NC(=O)N2CCN(Cc3nc4ccccc4c(=O)[nH]3)CC2)c1` [A17, N-(3-methoxyphenyl)-4-((4-oxo-3,4-dihydroquinazolin-2-yl)methyl)piperazine-1-carboxamide], the IC50 (HCC1937 cell lines [1]; [15]) was > 50 µM, the melting point was 186.3 to 188.5 °C and the IC50 (HCT-15 cell lines [11]; [16]) was > 50 µM.

— PMC10974284, “Discovery of Novel 4-Hydroxyquinazoline Derivatives: In Silico, In Vivo and In Vitro Studies Using Primary PARPi-Resistant Cell Lines” (Molecules, 2024)
